{"source": "patent EP4635500A1", "about": "“THERAPEUTIC AGENT FOR BACTERIAL INFECTION” (Sumitomo Pharma Co., Ltd., priority 2022, dated 2024)", "key": {"Enterobacterales": {"tested_on": "Enterobacterales", "test": "MIC, broth microdilution, CDC/FDA Antibiotic Resistance Isolate Bank (Example 7, Tables 8, 11, 12)", "type": "cell-based", "conditions": "Serratia marcescens, read-out: MIC"}, "A. baumannii": {"tested_on": "A. baumannii", "test": "MIC, broth microdilution, CDC/FDA Antibiotic Resistance Isolate Bank (Example 7, Tables 9, 13, 14)", "type": "cell-based, Acinetobacter baumannii", "conditions": "for MIC: read-out: MIC"}, "Providencia rettgeri": {"tested_on": "Providencia rettgeri", "test": "MIC, broth microdilution, standard strains and Japanese clinical isolates (Example 5, Table 4)", "type": "cell-based", "conditions": "ATCCBAA2525; KUB4010 Providencia rettgeri ATCC BAA-2525, OXA-181"}, "Enterobacter cloacae": {"tested_on": "Enterobacter cloacae", "test": "MIC, broth microdilution, standard strains and Japanese clinical isolates (Example 5, Table 4)", "type": "cell-based"}, "Enterobacter hormaechei": {"tested_on": "Enterobacter hormaechei", "test": "MIC, broth microdilution, standard strains and Japanese clinical isolates (Example 5, Table 4)", "type": "cell-based", "conditions": "ATCCBAA2082; KUB4001 Enterobacter hormaechei ATCC BAA-2082, KPC-2"}}, "note": "Like-named read-outs stand apart in the source and are kept apart here.", "data": [{"smiles": "C[C@@H](O)[C@H]1C(=O)N2C(C(=O)O)=C(S[C@@H]3CN[C@H](C(=O)N(C)C)C3)[C@H](C)[C@H]12", "note": "[MEPM, meropenem]", "values": [{"measurement": "MIC", "setting": "Enterobacterales; KUB No. 5627, AR Bank # 130, SME-3", "result": 8, "unit": "µg/mL"}, {"measurement": "MIC", "setting": "Enterobacterales; KUB No. 5628, AR Bank # 131, SME-3", "result": 0.5, "unit": "µg/mL"}, {"measurement": "MIC", "setting": "Enterobacterales; KUB No. 5822, AR Bank# 517, KPC-3", "result": 8, "unit": "µg/mL"}, {"measurement": "MIC", "setting": "Enterobacterales; KUB No. 5825, AR Bank# 520, no carbapenemase genes", "result": "≤ 0.06", "unit": "µg/mL"}, {"measurement": "MIC", "setting": "Enterobacterales; KUB No. 5826, AR Bank# 521, no carbapenemase genes", "result": "≤ 0.06", "unit": "µg/mL"}, {"measurement": "MIC50", "setting": "A. baumannii; 55 isolates of A. baumannii", "result": 32, "unit": "µg/mL"}, {"measurement": "MIC", "setting": "A. baumannii; Acinetobacter baumannii, A. baumannii KUB No. 5567, AR Bank #70, OXA-58, OXA-100", "result": 8, "unit": "µg/mL"}, {"measurement": "MIC", "setting": "A. baumannii; Acinetobacter baumannii, A. baumannii KUB No. 5575, AR Bank #78, OXA-71", "result": 32, "unit": "µg/mL"}, {"measurement": "MIC", "setting": "A. baumannii; Acinetobacter baumannii, A. baumannii KUB No. 5706, AR Bank #273, OXA-23, OXA-66", "result": 32, "unit": "µg/mL"}, {"measurement": "MIC", "setting": "A. baumannii; Acinetobacter baumannii, A. baumannii KUB No. 5708, AR Bank #275, OXA-23, OXA-66", "result": 32, "unit": "µg/mL"}, {"measurement": "MIC", "setting": "A. baumannii; Acinetobacter baumannii, A. baumannii KUB No. 5709, AR Bank #276, no carbapenemase genes (-)", "result": 4, "unit": "µg/mL"}, {"measurement": "MIC", "setting": "A. baumannii; Acinetobacter baumannii, A. baumannii KUB No. 5711, AR Bank #278, OXA-23, OXA-66", "result": 32, "unit": "µg/mL"}, {"measurement": "MIC", "setting": "A. baumannii; Acinetobacter baumannii, A. baumannii KUB No. 5712, AR Bank #279, OXA-23, OXA-66", "result": 32, "unit": "µg/mL"}, {"measurement": "MIC", "setting": "A. baumannii; Acinetobacter baumannii, A. baumannii KUB No. 5714, AR Bank #281, OXA-82", "result": 8, "unit": "µg/mL"}, {"measurement": "MIC", "setting": "A. baumannii; Acinetobacter baumannii, A. baumannii KUB No. 5715, AR Bank #282, OXA-23, OXA-66", "result": 32, "unit": "µg/mL"}, {"measurement": "MIC", "setting": "A. baumannii; Acinetobacter baumannii, A. baumannii KUB No. 5716, AR Bank #283, OXA-23, OXA-66", "result": 32, "unit": "µg/mL"}, {"measurement": "MIC", "setting": "A. baumannii; Acinetobacter baumannii, A. baumannii KUB No. 5721, AR Bank #288, OXA-23, OXA-66", "result": 16, "unit": "µg/mL"}, {"measurement": "MIC", "setting": "A. baumannii; Acinetobacter baumannii, A. baumannii KUB No. 5723, AR Bank #90, OXA-23, OXA-66", "result": 32, "unit": "µg/mL"}, {"measurement": "MIC", "setting": "A. baumannii; Acinetobacter baumannii, A. baumannii KUB No. 5724, AR Bank #291, OXA-23, OXA-66", "result": 32, "unit": "µg/mL"}, {"measurement": "MIC", "setting": "A. baumannii; Acinetobacter baumannii, A. baumannii KUB No. 5727, AR Bank #294, OXA-23, OXA-65", "result": 32, "unit": "µg/mL"}, {"measurement": "MIC", "setting": "A. baumannii; Acinetobacter baumannii, A. baumannii KUB No. 5728, AR Bank #295, OXA-23, OXA-66", "result": 32, "unit": "µg/mL"}, {"measurement": "MIC", "setting": "A. baumannii; Acinetobacter baumannii, A. baumannii KUB No. 5729, AR Bank #296, OXA-23, OXA-223", "result": 64, "unit": "µg/mL"}, {"measurement": "MIC", "setting": "A. baumannii; Acinetobacter baumannii, A. baumannii KUB No. 5730, AR Bank #297, OXA-23, OXA-66", "result": 16, "unit": "µg/mL"}, {"measurement": "MIC", "setting": "A. baumannii; Acinetobacter baumannii, A. baumannii KUB No. 5731, AR Bank #298, OXA-66, OXA-237", "result": 16, "unit": "µg/mL"}, {"measurement": "MIC", "setting": "A. baumannii; Acinetobacter baumannii, A. baumannii KUB No. 5732, AR Bank #299, OXA-23, OXA-203", "result": 32, "unit": "µg/mL"}, {"measurement": "MIC", "setting": "A. baumannii; Acinetobacter baumannii, A. baumannii KUB No. 5735, AR Bank #302, OXA-23, OXA-82", "result": 32, "unit": "µg/mL"}, {"measurement": "MIC", "setting": "A. baumannii; Acinetobacter baumannii, A. baumannii KUB No. 5736, AR Bank #303, OXA-23, OXA-66", "result": 16, "unit": "µg/mL"}, {"measurement": "MIC", "setting": "A. baumannii; Acinetobacter baumannii, A. baumannii KUB No. 5737, AR Bank #304, OXA-66, OXA-72", "result": 64, "unit": "µg/mL"}, {"measurement": "MIC", "setting": "A. baumannii; Acinetobacter baumannii, A. baumannii KUB No. 5740, AR Bank #307, OXA-66, OXA-237", "result": 8, "unit": "µg/mL"}, {"measurement": "MIC", "setting": "A. baumannii; Acinetobacter baumannii, A. baumannii KUB No. 5741, AR Bank #308, OXA-71", "result": 16, "unit": "µg/mL"}, {"measurement": "MIC", "setting": "A. baumannii; Acinetobacter baumannii, A. baumannii KUB No. 5742, AR Bank #309, OXA-23, OXA-82", "result": 32, "unit": "µg/mL"}, {"measurement": "MIC", "setting": "A. baumannii; Acinetobacter baumannii, A. baumannii KUB No. 5743, AR Bank #310, OXA-23, OXA-82", "result": 32, "unit": "µg/mL"}, {"measurement": "MIC", "setting": "A. baumannii; Acinetobacter baumannii, A. baumannii KUB No. 5744, AR Bank #311, OXA-23, OXA-82", "result": 32, "unit": "µg/mL"}, {"measurement": "MIC", "setting": "A. baumannii; Acinetobacter baumannii, A. baumannii KUB No. 5745, AR Bank #312, OXA-69", "result": 4, "unit": "µg/mL"}, {"measurement": "MIC", "setting": "A. baumannii; Acinetobacter baumannii, A. baumannii KUB No. 5746, AR Bank #313, OXA-23, OXA-69", "result": 16, "unit": "µg/mL"}, {"measurement": "MIC50", "setting": "A. baumannii; Acinetobacter baumannii, 55 strains of A. baumannii, read-out: MIC50", "result": 32, "unit": "µg/mL"}, {"measurement": "MIC", "setting": "Providencia rettgeri", "result": 2, "unit": "µg/mL"}, {"measurement": "MIC", "setting": "Enterobacter cloacae; ATCCBAA2341, KUB4002 Enterobacter cloacae ATCC BAA-2341, KPC-3", "result": 16, "unit": "µg/mL"}, {"measurement": "MIC", "setting": "Enterobacter cloacae; KUB3165 Enterobacter cloacae Clinical isolate, IMP-34", "result": 0.25, "unit": "µg/mL"}, {"measurement": "MIC", "setting": "Enterobacter cloacae; KUB3167 Enterobacter cloacae Clinical isolate, IMP-1", "result": 0.25, "unit": "µg/mL"}, {"measurement": "MIC", "setting": "Enterobacter cloacae; KUB3168 Enterobacter cloacae Clinical isolate, carbapenemase genes -", "result": 0.06, "unit": "µg/mL"}, {"measurement": "MIC", "setting": "Enterobacter cloacae; KUB3609 Enterobacter cloacae Clinical isolate, IMP-1", "result": 16, "unit": "µg/mL"}, {"measurement": "MIC", "setting": "Enterobacter cloacae; KUB3610 Enterobacter cloacae Clinical isolate, IMP-1", "result": 4, "unit": "µg/mL"}, {"measurement": "MIC", "setting": "Enterobacter hormaechei", "result": 16, "unit": "µg/mL"}]}]}
